# Test: Comment Code material properties: vapor pressure, ClogP, probability of ingredient color instability, odor detection threshold, melamine formaldehyde PMC headspace response ratio and leakage, liquid dish neat product liquid-air partition coefficient
# Assay type: physicochemical
# Conditions: Table 1 materials; each letter of the code is one property class (vapor pressure, ClogP, color instability, odor detection threshold, PMC headspace ratio, PMC leakage, liquid dish liquid-air partition coefficient)
row,Compound,Comment Code
1,O=C1CCCCCC=CCCCCCCCCO1 [Material 771],DGJ
2,C=C(C)C1CCC2(C)CCC=C(C)C2C1 (centres unmarked) [Material 774],BDEFHJK
3,CC1=CCCC2(C)CCC(C(C)(C)O)CC12 (centres unmarked) [Material 775],DEFHJK
4,CC(C)c1ccc2ncccc2c1 [Material 778],CEFHJK
5,CC1(C)C2CC=C(CCC=O)C1C2 (centres unmarked) [Material 781],BCFHJK
6,CC(=O)CCCC(C)CCCC(C)CCCC(C)C (centres unmarked) [Material 782],DEFHJK
7,C=CC1(C)CCC(C(=C)C)O1 (centres unmarked) [Material 786],ACGIJKL
8,O=C1CCCC=CCCCCCCCCCC1 [Material 788],DEFGJK
9,CC1=CCC(O)(C(C)C)CC1 (centres unmarked) [Material 791],BCHIJK
10,C=CCCC(=O)c1ccccc1 [Material 792],BCEFHIK
11,CC1=CCC(O)(C(C)C)CC1 (centres unmarked) [Material 800],BCHIJK
12,Cc1coc2c1CCC(C)C2 (centres unmarked) [Material 802],BCEFHIJKL
13,COc1ccc(CCC(C)=O)cc1 [Material 803],BCEFHJK
14,CC1C(=O)CC2(C)CCCC(C)(C)C23CC13 (centres unmarked) [Material 804],BDEFHJK
15,CCC=C1OC(=O)c2ccccc21 [Material 805],CEFHK
16,CCCCCCCCCC=CC=O [Material 806],BDFHJK
17,CC(CC=O)CCc1ccccc1 (centres unmarked) [Material 807],BDFHJK
18,CCC=CCCOC(=O)CC(C)C [Material 814],ADEFHJKL
19,CCC(C)CCC(C)(CC)OC(C)=O (centres unmarked) [Material 821],ADEFHIJKL
20,CC(C)c1ccc(CCC=O)cc1 [Material 826],BDFHJK
21,CCCCCCCCC=CC#N [Material 827],BDEFHJK
22,CCCCCCCCC=CC=O [Material 828],ADHJK
23,CC/C=C/CC/C=C/C=O [Material 829],ACHKL
24,CCCC(=O)OCCc1ccccc1 [Material 831],DEFHJK
25,O=CC(=Cc1ccco1)c1ccccc1 [Material 833],CHJ
26,OCCOc1ccccc1 [Material 834],BCEFGIK
27,CCCCCCC=CC=O [Material 837],ADHKL

row,Compound,Comment Code
1,CCCCCCCC(C)O (centres unmarked) [Material 839],BDEFGIKL
2,CCCCCCCC(C)=O [Material 840],ADFHIKL
3,CC(C)Cc1ccc2ccccc2n1 [Material 849],CEFHJK
4,CCCCCC=C1CCCC1=O [Material 850],DFHJKL
5,CCCCCCCC1CCCO1 (centres unmarked) [Material 852],BDEFHJKL
6,CCCCCCCC=CC=O [Material 856],ADHKL
7,CCC=CCCC=CC=O [Material 864],ACHKL
8,CCC=CCCC=CCO [Material 865],ACEFHK
9,CCC(C)CCCC(C)C=O (centres unmarked) [Material 866],ADFGIJKL
10,CCCCCCCCCCO [Material 868],BDEFGJK
11,CCCCCC=COC(C)=O [Material 869],ACEFHKL
12,C=CCCCCCCCCCO [Material 870],DEFHJK
13,C=CCCCCCCCCC=O [Material 871],ADHJK
14,CC1=C2CC(C(C)(C)O)CCC2(C)CCC1 (centres unmarked) [Material 872],DFHJK
15,CC12CCC(CC1)C(C)(C)S2 [Material 873],ADEFHIJKL
16,C=CC=CC=CCCCCC [Material 876],ADEFHJKL
17,CCC(C)(O)CCC=C(C)C (centres unmarked) [Material 877],BCEFGIJKL
18,CC(=O)OC1C2(C)CCC(C2)C1(C)C (centres unmarked) [Material 878],ADEFHIJKL
19,CC1C(C)(C)c2ccccc2C1(C)C [Material 879],ADHIJKL
20,CC(=O)OC(C)CCC=C(C)CCC=C(C)C (centres unmarked) [Material 881],DEFHJK
21,CCCCCCCC/C=C\CC=O [Material 884],BCFHJK
22,CC(=O)OC(C)CC/C=C(\C)CCC=C(C)C (centres unmarked) [Material 890],DEFHJK
23,C/C(=C/C#N)CCc1ccccc1 [Material 892],DEFHJK
24,CC1CCC2(O1)C(C)(C)CCCC2(C)O (centres unmarked) [Material 893],DFHIJK
25,C/C(=C\C#N)CCc1ccccc1 [Material 894],CEFHJK
26,C=C(C)C1CCC(C)C(O)C1 (centres unmarked) [Material 897],BCEFHIJKL

# Same assay, conditions: cell strings several class symbols together; each letter is one property class of L1
row,Compound,Comment Code
1,Cc1ccc2ncccc2c1 [Material 777],BCEFHIKL
2,CCC(C)CC(CC)CCCC(C)O (centres unmarked) [Material 779],BDEFGIJKL
3,CCC(=O)CC(C)CC (centres unmarked) [Material 784],ACFGIKL
4,O=C1CCCC=CCCCCCCCCCC1 [Material 788],DEFGJK
5,C=Cc1ccc(O)cc1 [Material 789],BCHIK
6,CCc1ccc(OC)c(O)c1 [Material 797],CEFHIK
7,CC1C(=O)CC2(C)CCCC(C)(C)C23CC13 (centres unmarked) [Material 804],BDEFHJK
8,Cc1n[nH]cc1-c1ccccc1 [Material 808],CEFHK
9,CC1CCC(=O)C1=O (centres unmarked) [Material 810],ACEFGIKL
10,COc1cc(C)cc(O)c1 [Material 811],BCHIK
11,COC(C)(C)CCO [Material 812],ACGIKL
12,CCC=CCCO [Material 817],ACEFHIKL
13,C=C(C=O)C(C)CCC=C(C)C (centres unmarked) [Material 819],ADFHIJK
14,CC(C)CCCC(C)CCO (centres unmarked) [Material 820],BDEFGIJKL
15,CC(=O)OCCc1ccccc1 [Material 832],BCEFHK
16,CCC(=O)OCCc1ccccc1 [Material 835],BCEFHJK
17,CCCCCC1CCCC1O (centres unmarked) [Material 836],DEFHIKL
18,CCCCCCCC1(C)OCC(C)O1 (centres unmarked) [Material 838],BDEFHJK

row,Compound,Comment Code
1,CCC(C)c1nccnc1OC (centres unmarked) [Material 845],BCEFGIK
2,CNC(=O)C(C)(C(C)C)C(C)C [Material 846],ACEFGIJK
3,CC(C)CC=C(C=O)C(C)C [Material 847],ADFGIJKL
4,Cc1csc(C(C)C)n1 [Material 848],ACHIJKL
5,CCCC=CCO [Material 851],ACEFHIKL
6,CC(C)C12CCC(C)(CC1)O2 [Material 875],ADGIJKL
7,CC=CC(=O)C1C(C)=CCCC1(C)C (centres unmarked) [Material 880],BDHIJK
8,CCC/C=C\CCOC(C)=O [Material 882],ACEFHKL
9,CC1=CC(=O)C2CC1C2(C)C (centres unmarked) [Material 883],ACEFGIJKL
10,C=C[C@](C)(O)CCC=C(C)C [Material 888],BCEFGIJK
11,CC(C)=CCCC(C)CC=O (centres unmarked) [Material 889],ACHIJKL
12,CC(C)=CCCC(C)CC=O (centres unmarked) [Material 891],ACHIJKL
13,CC(C)=CCCC(C)CCO (centres unmarked) [Material 899],BCHIJKL
14,CC(C)=CCCC(C)CCO (centres unmarked) [Material 900],BCHIJKL
15,CC1=CC[C@@H]2C[C@H]1C2(C)C [Material 901],ADEFGIJKL
16,C=C(C)C1CC=C(C)C(=O)C1 (centres unmarked) [Material 902],ACGIJKL
17,CC1=CC[C@H]2C[C@@H]1C2(C)C [Material 903],ADEFGIJKL
18,CCC(C)C(=O)OC (centres unmarked) [Material 904],ACEFGIKL
